In US20230142126A1, “METHODS AND COMPOSITIONS FOR THE TREATMENT OF VIRAL DISEASES” (priority 2020, published 2023):
Where “and” joins values, the source holds several entries; their conditions need not be identical. Equal values may be shown once. Read-outs that look alike come from different tables or passages of the source.

Columns and labels:
[1] = system: SARS-CoV-2; experiment: microbe, parasite or virus in culture; format: cell-based; conditions: for EC90 / EC50: Calu-3, plaque assay; for EC90: estimated
[2] = system: SARS-CoV-2 (strain: BEI_USA-WA1/2020); experiment: microbe, parasite or virus in culture; format: cell-based; conditions: Calu-3, 4 h pretreatment
[3] = system: Adenovirus (Type 5); experiment: CPE antiviral assay (MTS), Adenovirus in HeLa cells; format: cell-based; conditions: CPE 6 days, at the concentrations tested
[4] = system: Enterovirus 71; experiment: CPE (cytoprotection) antiviral assay with MTS readout, Enterovirus 71 in RD cells; format: cell-based, Enterovirus (EV-71(H)), strain 71H; conditions: for EC50: 50% inhibition of virus replication, read-out: EC 50% (EC50)
Procedure: Viruses and cells were mixed in the presence of Balicatib (HB-121) and incubated for the assay duration as specified in Table 1. […] An antiviral effect or cytoprotective effect was considered to be observed when therapeutic agent (Balicatib or positive control indicated in Table 1) prevented virus replication. A standardized plate format was used for cytoprotective assays. Each plate contained cell control wells (cells only), virus control wells (cells plus virus), therapeutic agent cytotoxicity wells (cells plus therapeutic agent only), therapeutic agent colorimetric control wells (therapeutic agent only), background control wells (media only), as well as experimental wells (therapeutic agent plus cells plus virus). Samples were evaluated for antiviral efficacy with triplicate measurements to determine cytotoxicity, if detectable. […] Interferon (IFN) was used as positive controls in the assays were noted as IU/mL (bioactivity defined by International Units/mL was used from the certificate of analysis information provided by the vendor, PBL Assay Science, Piscataway, NJ). In Table 2, fields labeled as “Drug 1” or “Drug 2” indicate Cells + Virus + Drug; fields labeled as “Tox 1” or “Tox 2” indicate Cells + Drug 1 or Drug 2, respectively (toxicity tested in duplicate); Cells labeled as “Color 1” or “Color 2” = Media + Drug 1 or Drug 2, respectively (colorimetric background, no cells).
At assay termination, the assay plates were stained with the soluble tetrazolium-based dye MTS (CellTiter®96 Reagent, Promega) to determine cell viability and quantify compound toxicity. MTS is metabolized by the mitochondrial enzymes of metabolically active cells to yield a soluble formazan product, allowing the rapid quantitative analysis of cell viability and compound cytotoxicity. […] At termination of the assay, 10-25 µL of MTS reagent was added per well (10% final concentration based on volume) and the microtiter plates were then incubated for 2-3 hours at 37° C., (except Rhinovirus assay plates, which were incubated at 33° C.) 5% CO2 to assess cell viability. Adhesive plate sealers were used in place of the lids, the sealed plates were inverted several times to mix the soluble formazan product and the plate was read spectrophotometrically at 490/650 nm with a Molecular Devices SpectraMax i3 plate reader.
Using an in-house computer program, the CPE data analysis was conducted and included the calculation of EC50 (50% inhibition of virus replication), EC95 (95% inhibition of virus replication), CC50 (50% cytotoxicity), CC95 (95% cytotoxicity) and selectivity index values (SI = CC/EC; also referred to as Antiviral Index or AI).
The minimum inhibitory drug concentration that reduced plaque formation by 50% (EC50) and the minimum drug concentration that inhibited cell growth by 50% (CC50) were calculated. The selectivity index (SI) for each active compound was determined by dividing the CC50 by the EC50.

[5] = system: Coxsackie (A7) (CoxA7); experiment: CPE antiviral assay (MTS), Coxsackie A7 in LLC-MK2 7.1 cells; format: cell-based; conditions: CPE 4 days, at the concentrations tested
[6] = system: Calu-3 human cells
[7] = system: Measles; experiment: CPE antiviral assay (MTS), Measles in MRC-5 cells; format: cell-based, Measles Virus (Edmonston); conditions: CPE 10 days, at the concentrations tested
Procedure: (§1) Viruses and cells were mixed in the presence of Balicatib (HB-121) and incubated for the assay duration as specified in Table 1. […] An antiviral effect or cytoprotective effect was considered to be observed when therapeutic agent (Balicatib or positive control indicated in Table 1) prevented virus replication. A standardized plate format was used for cytoprotective assays. […] Samples were evaluated for antiviral efficacy with triplicate measurements to determine cytotoxicity, if detectable. […]
(§2) At assay termination, the assay plates were stained with the soluble tetrazolium-based dye MTS (CellTiter®96 Reagent, Promega) to determine cell viability and quantify compound toxicity. MTS is metabolized by the mitochondrial enzymes of metabolically active cells to yield a soluble formazan product, allowing the rapid quantitative analysis of cell viability and compound cytotoxicity. […] Adhesive plate sealers were used in place of the lids, the sealed plates were inverted several times to mix the soluble formazan product and the plate was read spectrophotometrically at 490/650 nm with a Molecular Devices SpectraMax i3 plate reader. […]

[8] = system: HIV-1 (IIIB); experiment: CPE antiviral assay (MTS), HIV-1 in MT-4 cells; format: cell-based; conditions: CPE 6 days, at the concentrations tested
Procedure: as §1, §2

[9] = system: Rhinovirus 14 (HRV 14); experiment: CPE antiviral assay (MTS), Rhinovirus 14 in H1 HeLa cells; format: cell-based, strain 1059; conditions: 33° C., CPE 4 days, at the concentrations tested
[10] = system: Influenza A (Flu A. Cal); experiment: CPE antiviral assay (MTS), Influenza A in MDCK cells; format: cell-based, A/California/07/2009; conditions: CPE 3 days, at the concentrations tested
Procedure: as §1, §2

[11] = system: Parainfluenza Type 3; experiment: CPE antiviral assay (MTS), Parainfluenza in LLC-MK2 7.1 cells; format: cell-based, Parainfluenza Type 3 C243; conditions: CPE 7 days, at the concentrations tested
Procedure: as §1, §2

[12] = system: Influenza B (Flu B.Bris); experiment: CPE antiviral assay (MTS), Influenza B in MDCK cells; format: cell-based; conditions: CPE 3 days, at the concentrations tested
[13] = system: Dengue virus, serotype 2 (DENV2); experiment: CPE antiviral assay (MTS), Dengue virus in BHK-21 cells; format: cell-based, New Guinea C; conditions: CPE 5 days, at the concentrations tested
Procedure: as §1, §2

[14] = Cytotoxicity assay (MTS dye reduction) in the cells of the Enterovirus assay; format: cell-based; conditions: human
Procedure: (§3) Viruses and cells were mixed in the presence of Balicatib (HB-121) and incubated for the assay duration as specified in Table 1. […] An antiviral effect or cytoprotective effect was considered to be observed when therapeutic agent (Balicatib or positive control indicated in Table 1) prevented virus replication. A standardized plate format was used for cytoprotective assays. Each plate contained cell control wells (cells only), virus control wells (cells plus virus), therapeutic agent cytotoxicity wells (cells plus therapeutic agent only), therapeutic agent colorimetric control wells (therapeutic agent only), background control wells (media only), as well as experimental wells (therapeutic agent plus cells plus virus). Samples were evaluated for antiviral efficacy with triplicate measurements to determine cytotoxicity, if detectable. […] Interferon (IFN) was used as positive controls in the assays were noted as IU/mL (bioactivity defined by International Units/mL was used from the certificate of analysis information provided by the vendor, PBL Assay Science, Piscataway, NJ). […]
as §2
(§4) Cells were seeded at 2,500 to 40,000 cells per well in 96-well plates in replication medium as specified in Table 3. […] After the assay readout (duration) as specified in Table 1, cell viability was determined using MTS dye reduction. […]

[15] = system: RD cells; experiment: as above; format: cell-based; conditions: RD cells, 4 days
Procedure: as §3, §2, §4

[16] = system: Respiratory syncytial virus (RSV); experiment: CPE antiviral assay (MTS), RSV in HEp-2 cells; format: cell-based, Long; conditions: CPE 5 days, at the concentrations tested
Procedure: as §1, §2

[17] = in vitro; conditions: human
[18] = system: SARS-CoV-2 hCoV-19/USA/WA1/2020; format: cell-based
[19] = Plasma concentration of Balicatib after oral dosing, based on human clinical dosing; conditions: 400 mg oral dosing, EC50 against SARS-CoV-2
[20] = Severe acute respiratory syndrome coronavirus 2

CC(C)(F)C[C@H](N[C@@H](c1ccc(-c2ccc(S(C)(=O)=O)cc2)cc1)C(F)(F)F)C(=O)NC1(C#N)CC1 [Odanacatib]
inhibition at 1 µM ([1]; Severe acute respiratory syndrome coronavirus 2, Calu-3, 1 µM (Table 7), read-out: % Inhibition): 48.4% | inhibition at 10 µM ([1]; Severe acute respiratory syndrome coronavirus 2, Calu-3, 10 µM (Table 7), read-out: % Inhibition): 97.1% | EC90 [1, 20]: 1 to 10 µM | EC50 ([1]; Severe acute respiratory syndrome coronavirus 2, estimated from 1 and 10 µM): ~1 µM

C[C@@H]1CS/C(=N\NC(=O)C(=O)[C@@H](NC(=O)C2CCCCCC2)C2CCOCC2)N1C [ONO-5334]
% Inhibition ([1]; 1 µM (Table 7)): 79% | % Inhibition ([1]; 10 µM (Table 7)): 100% | EC50 ([1]; estimated from 1 and 10 µM): < 1 µM | antiviral activity (percentage of virus infected cells vs concentration) ([2]; MOI 0.01, 48 h post-infection (FIG. 2, FIG. 3)): demonstrated antiviral activity

CCCN1CCN(c2ccc(C(=O)NC3(C(=O)NCC#N)CCCCC3)cc2)CC1 [Balicatib]
antiviral efficacy [3]: not effective | EC 25% ([4]; 25% inhibition of virus replication, RD cells, CPE 4 days): 5.85 µM | EC50 ([4]; RD cells, CPE 4 days, listed as HB-121): 22.1 µM | EC 95% (EC95) ([4]; 95% inhibition of virus replication, RD cells, CPE 4 days): >30.0 µM | EC50 ([4]; Enterovirus A, RD, 96 h, RD cells, CPE 4 days): ~20 µM | Selectivity Index (SI) 50% ([4]; SI = CC50/EC50): >1.36 | Selectivity Index (SI) 25% ([4]; SI = CC/EC at 25%): >5.13 | antiviral efficacy [5]: not effective | Cell Appearance ([6]; 100 µM (Table 6)): No CPEs | Viability (%) at 24 hr time point ([6]; 100 µM, 24 hr, 98.7% viability at seeding): 71.0% and 72.1% | effect on cell growth ([6]; 100 µM, Calu-3): little to no effect on cell growth | effect on cellular viability ([6]; 100 µM, Calu-3): does not alter cellular viability | Count (cells/ml) at 24 hr time point ([6]; 100 µM, seeded at 2.0E5 per well, 24 hr): 1.8e5 cells/ml and 1.6e5 cells/ml | antiviral efficacy [7]: not effective | antiviral efficacy [8]: not effective | antiviral efficacy [9]: not effective | antiviral efficacy [10]: not effective | antiviral efficacy [11]: not effective | antiviral efficacy [12]: not effective | antiviral efficacy [13]: not effective | CC50 at 4 days [14]: > 30 µM | CC 25% ([15]; 25% cytotoxicity): > 30.0 µM | CC 95% (CC95) ([15]; 95% cytotoxicity): > 30.0 µM | antiviral efficacy [16]: not effective | Overall % Inhibition (average of two experiments) Combined ([1]; 100 nM, 0.1 µM): 57.75% | Overall % Inhibition (average of two experiments) Combined ([1]; 10 µM): 99.4% | Selectivity Index (SI) ([1]; Calu-3 cells, calculated from CC50 and EC50): > 300 | inhibition at 0.1 µM ([1]; Severe acute respiratory syndrome coronavirus 2, Calu-3, 100 nM, read-out: Overall % Inhibition (average of two experiments) Combined): ~57% | inhibition at 0.3 µM ([1]; Severe acute respiratory syndrome coronavirus 2, Calu-3, 300 nM, read-out: Overall % Inhibition (average of two experiments) Combined): 90% | inhibition at 1 µM ([1]; Severe acute respiratory syndrome coronavirus 2, Calu-3, 1 µM, read-out: Overall % Inhibition (average of two experiments) Combined): ~68% | inhibition at 3 µM ([1]; Severe acute respiratory syndrome coronavirus 2, Calu-3, 3 µM, read-out: Overall % Inhibition (average of two experiments) Combined): ~100% | inhibition at 10 µM ([1]; Severe acute respiratory syndrome coronavirus 2, Calu-3, 10 µM, read-out: Overall % Inhibition (average of two experiments) Combined): ~100% | inhibition at 30 µM ([1]; Severe acute respiratory syndrome coronavirus 2, Calu-3, 30 µM, read-out: Overall % Inhibition (average of two experiments) Combined): ~100% | inhibition at 0.1 µM ([1]; Severe acute respiratory syndrome coronavirus 2, Calu-3, 72 h, 100 nM, MOI 0.1, 72 h, read-out: % Inhibition Experiment 1): 97.3% | inhibition at 0.1 µM ([1]; Severe acute respiratory syndrome coronavirus 2, Calu-3, 72 h, 100 nM, MOI 0.1, 72 h, read-out: % Inhibition Experiment 2): 18% | inhibition at 0.3 µM ([1]; Severe acute respiratory syndrome coronavirus 2, Calu-3, 72 h, 300 nM, MOI 0.1, 72 h, read-out: % Inhibition Experiment 2): 90% | inhibition at 1 µM ([1]; Severe acute respiratory syndrome coronavirus 2, Calu-3, 72 h, 1 µM, MOI 0.1, 72 h, read-out: % Inhibition Experiment 1): 64% | inhibition at 1 µM ([1]; Severe acute respiratory syndrome coronavirus 2, Calu-3, 72 h, 1 µM, MOI 0.1, 72 h, read-out: % Inhibition Experiment 2): 72.5% | inhibition at 3 µM ([1]; Severe acute respiratory syndrome coronavirus 2, Calu-3, 72 h, 3 µM, MOI 0.1, 72 h, read-out: % Inhibition Experiment 2): 100% | inhibition at 10 µM ([1]; Severe acute respiratory syndrome coronavirus 2, Calu-3, 72 h, 10 µM, MOI 0.1, 72 h, read-out: % Inhibition Experiment 1): 98.8% | inhibition at 10 µM ([1]; Severe acute respiratory syndrome coronavirus 2, Calu-3, 72 h, 10 µM, MOI 0.1, 72 h, read-out: % Inhibition Experiment 2): 100% | inhibition at 30 µM ([1]; Severe acute respiratory syndrome coronavirus 2, Calu-3, 72 h, 30 µM, MOI 0.1, 72 h, read-out: % Inhibition Experiment 2): 100% | EC90 [1, 20]: 1 to 3 µM | EC50 ([1]; Severe acute respiratory syndrome coronavirus 2, estimated from two studies): 0.05 to 0.6 µM | CC50 [17]: > 100 µM | titer reduction in virus titer (TCID50) ([18]; 0.3 µM (lowest test concentration), A549-hACE2, MOI 0.1, 24 hours): > 3 log | titer reduction vs virus without Balicatib (TCID50) ([18]; 5 µM, A549-hACE2, MOI 0.1, 24 hours): more than 6 log | reduction of SARS-CoV-2 WA1/2020 ([18]; A549-hACE2 cells, 24 hours): significant reduction | EC50 ([2]; Severe acute respiratory syndrome coronavirus 2, MOI 0.01, 48 h post-infection, % infected cells (FIG. 1), read-out: approximate EC50): 0.25 to 0.5 µM | time plasma concentration is above EC50 [19]: 16 to 20 h
